Source: patent US20230085307A1, “PYRIDAZINONE COMPOUND AND HERBICIDE” (NISSAN CHEMICAL CORPORATION, priority 2019, published 2023)

Legend:
[1] = system: late watergrass; assay: Test Example 1: herbicidal activity, application before weed generation under submerged conditions (Table 16, symbol A); type: in vivo, late watergrass (Echinochloa oryzicola); conditions: 320 g/ha applied herbicide
How it was run: (§1)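 Submerged Wagner pots (alluvial soil, 4 cm water) sown with weed seeds and planted with 2.5-leaf rice seedlings; emulsifiable concentrate diluted in water applied to water surface on sowing day. Held in greenhouse at 25-30 °C; injury scored 0-5 by herbicidal rate after three weeks.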

[2] = system: Japanese bulrush; assay: Test Example 1: herbicidal activity, application before weed generation under submerged conditions (Table 16, symbol B); type: in vivo, Japanese bulrush (Schoenoplectus juncoides); conditions: 320 g/ha applied herbicide
How it was run: as §1

[3] = system: oval-leafed pondweed; assay: Test Example 1: herbicidal activity, application before weed generation under submerged conditions (Table 16, symbol C); type: in vivo, oval-leafed pondweed (Monochoria vaginalis); conditions: 320 g/ha applied herbicide
How it was run: as §1

[4] = system: barnyard grass; assay: Test Example 3: herbicidal effect by foliage application, Wagner pot (Table 18, symbol H); type: in vivo, barnyard grass (Echinochloa crus-galli); conditions: 320 g/ha
How it was run: (§2)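 Plants were sown in alluvial soil held under 0.1–0.5 cm standing water and grown 14 days in a greenhouse at 25–30 °C. An emulsifiable formulation, water-diluted to the set dose, was then sprayed onto the foliage, and effects were scored three weeks later using previously defined criteria.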

[5] = system: Chinese sprangletop; assay: Test Example 3: herbicidal effect by foliage application, Wagner pot (Table 18, symbol D); type: in vivo, chinese sprangletop (Leptochloa chinensis); conditions: 320 g/ha
How it was run: as §2

[6] = system: rice flat sedge; assay: Test Example 3: herbicidal effect by foliage application, Wagner pot (Table 18, symbol E); type: in vivo, rice flat sedge (Cyperus iria); conditions: 320 g/ha
How it was run: as §2

[7] = system: southern crabgrass; assay: Test Example 4: herbicidal effect by soil treatment (Table 19, symbol F); type: in vivo, southern crabgrass (Digitaria ciliaris)
How it was run: (§3)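 Applied as a water-diluted emulsion, the compound was sprayed onto soil covering newly sown seeds. Evaluation came three weeks after application, in a greenhouse held at 25° C. to 30° C.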

[8] = system: green foxtail; assay: Test Example 4: herbicidal effect by soil treatment (Table 19, symbol G); type: in vivo, green foxtail (Setaria viridis)
How it was run: as §3

[9] = system: barnyard grass; assay: Test Example 4: herbicidal effect by soil treatment (Table 19, symbol H); type: in vivo, barnyard grass (Echinochloa crus-galli)
How it was run: as §3

[10] = system: wild oat; assay: Test Example 4: herbicidal effect by soil treatment (Table 19, symbol I); type: in vivo, wild oat (Avena fatua)
How it was run: as §3

[11] = system: blackgrass; assay: Test Example 4: herbicidal effect by soil treatment (Table 19, symbol J); type: in vivo, blackgrass (Alopecurus myosuroides)
How it was run: as §3

[12] = system: Italian ryegrass; assay: Test Example 4: herbicidal effect by soil treatment (Table 19, symbol K); type: in vivo, Italian ryegrass (Lolium multiflorum)
How it was run: as §3

[13] = system: windgrass; assay: Test Example 4: herbicidal effect by soil treatment (Table 19, symbol L); type: in vivo, windgrass (Apera spica-venti)
How it was run: as §3

[14] = system: velvetleaf; assay: Test Example 4: herbicidal effect by soil treatment (Table 19, symbol M); type: in vivo, velvetleaf (Abutilon theophrasti)
How it was run: as §3

[15] = system: redroot pigweed; assay: Test Example 4: herbicidal effect by soil treatment (Table 19, symbol N); type: in vivo, redroot pigweed (Amaranthus retroflexus)
How it was run: as §3

[16] = system: lambsquarters; assay: Test Example 4: herbicidal effect by soil treatment (Table 19, symbol O); type: in vivo, lambsquarters (Chenopodium album)
How it was run: as §3

[17] = system: chickweed; assay: Test Example 4: herbicidal effect by soil treatment (Table 19, symbol P); type: in vivo, common chickweed (Stellaria media)
How it was run: as §3

[18] = system: persian speedwell; assay: Test Example 4: herbicidal effect by soil treatment (Table 19, symbol R); type: in vivo, Persian speedwell (Veronica persica)
How it was run: as §3

[19] = system: southern crabgrass; assay: Test Example 5: herbicidal effect by foliage application, plastic box (Table 20, symbol F); type: in vivo, southern crabgrass (Digitaria ciliaris); conditions: foliage application, 320 g/ha, 3 weeks after application
How it was run: (§4)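 Sow seeds spot-wise in sterilized diluvial soil; cover with ~1.5 cm soil. Grow 14 days in greenhouse, 25° C. to 30° C. Spray foliage with emulsion diluted to predetermined amount. Rate effect after 3 weeks.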

[20] = system: green foxtail; assay: Test Example 5: herbicidal effect by foliage application, plastic box (Table 20, symbol G); type: in vivo, green foxtail (Setaria viridis); conditions: foliage application, 320 g/ha, 3 weeks after application
How it was run: as §4

[21] = system: barnyard grass; assay: Test Example 5: herbicidal effect by foliage application, plastic box (Table 20, symbol H); type: in vivo, barnyard grass (Echinochloa crus-galli); conditions: foliage application, 320 g/ha, 3 weeks after application
How it was run: as §4

[22] = system: wild oat; assay: Test Example 5: herbicidal effect by foliage application, plastic box (Table 20, symbol I); type: in vivo, wild oat (Avena fatua); conditions: foliage application, 320 g/ha, 3 weeks after application
How it was run: as §4

[23] = system: blackgrass; assay: Test Example 5: herbicidal effect by foliage application, plastic box (Table 20, symbol J); type: in vivo, blackgrass (Alopecurus myosuroides); conditions: foliage application, 320 g/ha, 3 weeks after application
How it was run: as §4

[24] = system: Italian ryegrass; assay: Test Example 5: herbicidal effect by foliage application, plastic box (Table 20, symbol K); type: in vivo, Italian ryegrass (Lolium multiflorum); conditions: foliage application, 320 g/ha, 3 weeks after application
How it was run: as §4

[25] = system: windgrass; assay: Test Example 5: herbicidal effect by foliage application, plastic box (Table 20, symbol L); type: in vivo, windgrass (Apera spica-venti); conditions: foliage application, 320 g/ha, 3 weeks after application
How it was run: as §4

[26] = system: velvetleaf; assay: Test Example 5: herbicidal effect by foliage application, plastic box (Table 20, symbol M); type: in vivo, velvetleaf (Abutilon theophrasti); conditions: foliage application, 320 g/ha, 3 weeks after application
How it was run: as §4

[27] = system: lambsquarters; assay: Test Example 5: herbicidal effect by foliage application, plastic box (Table 20, symbol O); type: in vivo, lambsquarters (Chenopodium album); conditions: foliage application, 320 g/ha, 3 weeks after application
How it was run: as §4

[28] = system: persian speedwell; assay: Test Example 5: herbicidal effect by foliage application, plastic box (Table 20, symbol R); type: in vivo, Persian speedwell (Veronica persica); conditions: foliage application, 320 g/ha, 3 weeks after application
How it was run: as §4

| Structure (SMILES) | Herbicidal effect on A: late watergrass (grade 0-5) [1] | Herbicidal effect on B: Japanese bulrush (grade 0-5) [2] | Herbicidal effect on C: oval-leafed pondweed (grade 0-5) [3] | herbicidal effect on H (barnyard grass), rating 0-5 [4] | herbicidal effect on D (Chinese sprangletop), rating 0-5 [5] | herbicidal effect on E (rice flat sedge), rating 0-5 [6] | effect on southern crabgrass (F) [19] | effect on green foxtail (G) [20] | effect on barnyard grass (H) [21] | effect on wild oat (I) [22] | effect on blackgrass (J) [23] | effect on Italian ryegrass (K) [24] | effect on windgrass (L) [25] | effect on velvetleaf (M) [26] | effect on lambsquarters (O) [27] | effect on persian speedwell (R) [28] | further results |
| --- | --- | --- | --- | --- | --- | --- | --- | --- | --- | --- | --- | --- | --- | --- | --- | --- | --- |
| Cc1nn(C)c(=O)c(-c2c(-c3ccc(OC(C)C#N)cc3)sc3ccccc23)c1O (racemic) [1-236] | 3 (Herbicidal rate of 40% or more and less than 70%) | 0 (Herbicidal rate of 5% or less (almost no effect)) | 0 (Herbicidal rate of 5% or less (almost no effect)) | 5 (Herbicidal rate of 90% or more (almost completely withered)) | 5 (Herbicidal rate of 90% or more (almost completely withered)) | 5 (Herbicidal rate of 90% or more (almost completely withered)) | 4 (Herbicidal rate of 70% or more and less than 90%) | 4 (Herbicidal rate of 70% or more and less than 90%) | 5 (Herbicidal rate of 90% or more (almost completely withered)) | 5 (Herbicidal rate of 90% or more (almost completely withered)) | 4 (Herbicidal rate of 70% or more and less than 90%) | 5 (Herbicidal rate of 90% or more (almost completely withered)) | 0 (Herbicidal rate of 5% or less (almost no effect)) | 5 (Herbicidal rate of 90% or more (almost completely withered)) | 5 (Herbicidal rate of 90% or more (almost completely withered)) | 5 (Herbicidal rate of 90% or more (almost completely withered)) | F: southern crabgrass, herbicidal effect rating ([7]; AAH 320 g/ha): 4 (Herbicidal rate of 70% or more and less than 90%); G: green foxtail, herbicidal effect rating ([8]; AAH 320 g/ha): 4 (Herbicidal rate of 70% or more and less than 90%); H: barnyard grass, herbicidal effect rating ([9]; AAH 320 g/ha): 5 (Herbicidal rate of 90% or more (almost completely withered)); I: wild oat, herbicidal effect rating ([10]; AAH 320 g/ha): 0 (Herbicidal rate of 5% or less (almost no effect)); J: blackgrass, herbicidal effect rating ([11]; AAH 320 g/ha): 0 (Herbicidal rate of 5% or less (almost no effect)); K: Italian ryegrass, herbicidal effect rating ([12]; AAH 320 g/ha): 3 (Herbicidal rate of 40% or more and less than 70%); L: windgrass, herbicidal effect rating ([13]; AAH 320 g/ha): 0 (Herbicidal rate of 5% or less (almost no effect)); M: velvetleaf, herbicidal effect rating ([14]; AAH 320 g/ha): 1 (Herbicidal rate of 5% or more and less than 20%); N: redroot pigweed, herbicidal effect rating ([15]; AAH 320 g/ha): 5 (Herbicidal rate of 90% or more (almost completely withered)); O: lambsquarters, herbicidal effect rating ([16]; AAH 320 g/ha): 4 (Herbicidal rate of 70% or more and less than 90%); P: chickweed, herbicidal effect rating ([17]; AAH 320 g/ha): 4 (Herbicidal rate of 70% or more and less than 90%); R: persian speedwell, herbicidal effect rating ([18]; AAH 320 g/ha): 4 (Herbicidal rate of 70% or more and less than 90%) |
| CCOC(=O)Oc1c(C)nn(C)c(=O)c1-c1c(-c2ccc(F)cc2)sc2ccc(F)cc12 [2-004] | 0 (Herbicidal rate of 5% or less (almost no effect)) | 2 (Herbicidal rate of 20% or more and less than 40%) | 2 (Herbicidal rate of 20% or more and less than 40%) | 5 (Herbicidal rate of 90% or more (almost completely withered)) | 3 (Herbicidal rate of 40% or more and less than 70%) | 4 (Herbicidal rate of 70% or more and less than 90%) | 4 (Herbicidal rate of 70% or more and less than 90%) | 5 (Herbicidal rate of 90% or more (almost completely withered)) | 4 (Herbicidal rate of 70% or more and less than 90%) | 0 (Herbicidal rate of 5% or less (almost no effect)) | 4 (Herbicidal rate of 70% or more and less than 90%) | 5 (Herbicidal rate of 90% or more (almost completely withered)) | 3 (Herbicidal rate of 40% or more and less than 70%) | 5 (Herbicidal rate of 90% or more (almost completely withered)) | 3 (Herbicidal rate of 40% or more and less than 70%) | 5 (Herbicidal rate of 90% or more (almost completely withered)) | herbicidal effect rating, F: southern crabgrass ([7]; 320 g/ha): 4 (Herbicidal rate of 70% or more and less than 90%); herbicidal effect rating, G: green foxtail ([8]; 320 g/ha): 5 (Herbicidal rate of 90% or more (almost completely withered)); herbicidal effect rating, H: barnyard grass ([9]; 320 g/ha): 4 (Herbicidal rate of 70% or more and less than 90%); herbicidal effect rating, I: wild oat ([10]; 320 g/ha): 0 (Herbicidal rate of 5% or less (almost no effect)); herbicidal effect rating, J: blackgrass ([11]; 320 g/ha): 0 (Herbicidal rate of 5% or less (almost no effect)); herbicidal effect rating, K: Italian ryegrass ([12]; 320 g/ha): 5 (Herbicidal rate of 90% or more (almost completely withered)); herbicidal effect rating, L: windgrass ([13]; 320 g/ha): 0 (Herbicidal rate of 5% or less (almost no effect)); herbicidal effect rating, M: velvetleaf ([14]; 320 g/ha): 3 (Herbicidal rate of 40% or more and less than 70%); herbicidal effect rating, N: redroot pigweed ([15]; 320 g/ha): 5 (Herbicidal rate of 90% or more (almost completely withered)); herbicidal effect rating, O: lambsquarters ([16]; 320 g/ha): 5 (Herbicidal rate of 90% or more (almost completely withered)); herbicidal effect rating, P: chickweed ([17]; 320 g/ha): 5 (Herbicidal rate of 90% or more (almost completely withered)); herbicidal effect rating, R: persian speedwell ([18]; 320 g/ha): 1 (Herbicidal rate of 5% or more and less than 20%) |
